Data on 4 molecules can be found in paper PMC6505380, “An Extensively Humanized Mouse Model to Predict Pathways of Drug Disposition and Drug/Drug Interactions, and to Facilitate Design of Clinical Trials” (Drug Metabolism and Disposition, 2019).

By Km is commonly meant the concentration of substrate that gives half-maximal velocity. One may read the half-life as the time in which the quantity being followed falls by half.

The conditions of data set [1]: female, 8HUM, mouse, in vivo.
Experimental: Blood sampling and analysis was carried out as described above and in Supplemental Data.
The test system of data set [2] is CYP2D6. Put plainly: Kinetic parameters of 4-hydroxyl debrisoquine formation in liver microsomes (HLM, 8HUM). In kind it is in vitro ADME. Conditions: pooled human liver microsomes (HLM). Here is the method: All samples were handled in amber tubes under conditions of subdued light for the duration of the procedure. […] The samples were then centrifuged at 3000g for 55 minutes at 4°C and an aliquot of the supernatant fraction was analyzed by LC-MS/MS.
Calibration curves were constructed with authentic metabolite standards and linear regression analysis used to calculate the amount of metabolite formed in each test sample. […] The 7-ethoxyresorufin O-deethylation assay was carried out as detailed below.

The target of data set [3] is CYP2C9 (Homo sapiens, UniProt P11712). Put plainly: Enzyme inhibition assay, tolbutamide hydroxylation (HLM, 8HUM microsomes). Conditions: tolbutamide 2 μM in cocktail, furafylline 3, enoxacin 200, fluconazole 300, sulfaphenazole 3, quinidine 3, paroxetine 10, ketoconazole 1 μM. On the procedure:
(§1) After a 5-minute preincubation at 37°C, reactions were initiated by addition of NADPH (1.3 mM). […] The samples were then centrifuged at 3000g for 55 minutes at 4°C, and an aliquot of the supernatant fraction was analyzed by LC-MS/MS. All experiments were performed at least in triplicate.

The nature of data set [4]: Dabrafenib pharmacokinetics in 8HUM mice: effect of rifampicin and ketoconazole. Format: in vivo, mouse. To be noted: for Cmax / half-life / AUC: female, 8HUM, mouse, whole blood, po, 10 mg/kg, female 8HUM mice, dabrafenib 10 mg/kg PO; for AUC: read-out: AUC0 t. On the procedure:
Pharmacokinetic parameters were calculated by Phoenix WinNonlin version 8.0.0.3176 (Certara, Princeton, NJ).
Fig. 3.

The conditions of data set [5]: healthy volunteers; single dose of 200 mg ketoconazole 2 hours prior to midazolam; ref McCrea et al., 1999; cited from earlier work.
Data set [6] addresses T1, CYP1A2 (Homo sapiens, UniProt P05177).
T1 sequence (P05177 1-516): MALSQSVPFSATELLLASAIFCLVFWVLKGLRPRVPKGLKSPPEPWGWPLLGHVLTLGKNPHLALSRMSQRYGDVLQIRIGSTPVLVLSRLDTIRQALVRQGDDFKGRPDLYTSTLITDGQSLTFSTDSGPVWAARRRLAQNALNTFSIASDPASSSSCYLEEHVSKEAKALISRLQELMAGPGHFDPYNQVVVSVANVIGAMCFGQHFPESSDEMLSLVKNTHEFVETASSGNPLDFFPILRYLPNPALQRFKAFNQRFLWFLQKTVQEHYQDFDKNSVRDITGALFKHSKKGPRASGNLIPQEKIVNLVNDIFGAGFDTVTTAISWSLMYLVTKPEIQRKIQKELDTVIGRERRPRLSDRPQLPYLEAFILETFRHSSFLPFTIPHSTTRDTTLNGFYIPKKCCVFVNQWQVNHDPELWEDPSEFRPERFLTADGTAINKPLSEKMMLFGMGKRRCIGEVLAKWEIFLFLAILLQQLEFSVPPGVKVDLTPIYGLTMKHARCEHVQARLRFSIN
Put plainly: Enzyme inhibition assay, caffeine to paraxanthine (HLM, 8HUM microsomes). To be noted: caffeine 220 μM in cocktail, furafylline 3, enoxacin 200, fluconazole 300, sulfaphenazole 3, quinidine 3, paroxetine 10, ketoconazole 1 μM. On the procedure: as §1

Data set [7] concerns CYP2D6. The arrangement: method as in VandenBrink et al., 2012. Conditions: man; ref VandenBrink et al., 2012; cited from earlier work.
In data set [8] the test system is Cyp2b10. Put plainly: Murine Cyp2b10 expression in humanized mice after treatment (immunoblot). In kind it is in vivo, mouse. To be noted: 8HUM mice, dabrafenib 10 mg/kg. Here is the method: We therefore sought to identify a specific, clinically relevant PXR agonist that was nontoxic. […] Subsequent studies were therefore undertaken using SJW to induce CYP3A4 expression in 8HUM mice.
(§2) Fig. 7. […] Arrow indicates position of Cyp2b10 band. GRP78 was used as a loading control.
Fig. 8. Effect of dabrafenib on midazolam pharmacokinetics in 8HUM mice. Adult female 8HUM mice (n = 3) were treated with vehicle or dabrafenib (10 mg/kg) PO daily for 2 days, and on day 3 were administered midazolam (3 mg/kg) PO and PK profiling carried out as described in Materials and Methods. (A) Pharmacokinetic profiling for midazolam in 8HUM mice receiving either vehicle (open circles) or dabrafenib (closed triangles). Data shown are mean ± S.D. (B) Immunoblotting of liver microsomes from 8HUM mice, untreated or treated as above, against mouse and human P450 isozymes. Dab, Dabrafenib; MDZ, midazolam; Unt, untreated; Veh, vehicle. One group of dabrafenib-treated mice (Dab) were sacrificed on day 3 without exposure to midazolam to determine the effects of dabrafenib on P450 expression at the start of the PK profiling. […] Std, standard, recombinant human P450 protein or phenobarbital-treated liver microsomes (Cyp2b10); HLM, human liver microsomes.
(In general: Immunoblotting shows a protein as a band on a membrane.)

In data set [9] the test system is 8HUM liver microsomes. Put plainly: Dextromethorphan O-demethylation in liver microsomes of dabrafenib-treated 8HUM mice. In kind it is in vitro ADME, mouse. On the procedure: After 5 minutes, the reaction was stopped by combining 100 μl of the reaction mixture with 120 μl of 0.2 M hydrochloric acid containing dextrorphan-d3 (92 ng/ml) as an internal standard. […] The concentrations of […] were measured by liquid chromatography–tandem mass spectrometry (LC-MS/MS). […] The multiple reaction monitoring parameters for dextrorphan and dextrorphan-d3 were 258.16 and 261.24 (precursor ions) and 157.04 (one product ion for both compounds), respectively.
(§3) Fig. 8. Effect of dabrafenib on midazolam pharmacokinetics in 8HUM mice. […] Dab, Dabrafenib; MDZ, midazolam; Unt, untreated; Veh, vehicle.

Details of data set [10]: method as in Suttle et al., 2015. To be noted: patients, 150 mg twice per day, ref Suttle et al., 2015, cited from earlier work.
In data set [11] the target is T1, CYP1A2. Put plainly: 7-Methoxyresorufin O-demethylation in liver microsomes of treated 8HUM mice. Conditions: 8HUM liver microsomes, dabrafenib-treated. On the technique in general: Liver microsomes are a subcellular fraction often used to study metabolism.
Experimental: A mixture of either 7-methoxyresorufin or 7-ethoxyresorufin (1 μM) and 8HUM liver microsomes or HLM (∼0.38 mg protein/ml) in 100 mM potassium phosphate buffer (pH 7.4) supplemented with MgCl2 (3.3 mM) was incubated at 37°C for 5 minutes before the addition of NADPH (final concentration 1.2 mM). […] Slopes of the linear part of the kinetic curves were calculated using Ascent Software Version 2.4.1 (Labsystems). For each reaction two controls, with and without reaction product resorufin (40 pmol) were run. Fluorescence was measured from both control wells and the difference in fluorescence intensity between wells with and without resorufin was used for the conversion of the relative fluorescence units to the picomoles of the reaction product.
Data set [12] concerns 8HUM liver microsomes. Put plainly: Dibenzylfluorescein O-debenzylation in liver microsomes of dabrafenib-treated 8HUM mice. In kind it is in vitro ADME, mouse. To be noted: for Dibenzylfluorescein O-debenzylation: 8HUM liver microsomes, dabrafenib-treated. On the procedure:
The O-debenzylation of dibenzylfluorescein (DBF) was measured as described above for the 7-methoxyresorufin O-demethylation assay, with the following modifications: the DBF concentration was 2 μM; the excitation filter was 485 nm; the emission filter was 530 nm; 20 pmol of the fluorescein was added to the control wells.
as §3

In data set [13] the test system is Cytochrome c reductase. Put plainly: Cytochrome c reductase activity in liver microsomes of dabrafenib-treated 8HUM mice. Format: in vitro ADME, mouse. Conditions: 8HUM liver microsomes. Here is the method:
A mixture of cytochrome c from bovine heart (40 μM) and mouse liver microsomes (∼7.6 μg/ml) in 0.3 M potassium phosphate buffer (pH 7.7) was incubated at 37°C for at least 2 minutes before the reaction was started by addition of NADPH (0.1 mM final concentration). The absorbance at 550 nm was recorded and the reaction rate calculated from the linear region of the absorbance time course. The extinction coefficient of 0.0211 μM^−1cm^−1 was used ([van Gelder and Slater, 1962]) to calculate concentration of the reduced cytochrome c.
as §3

The subject of data set [14] is CYP3A4. As to the kind of experiment: Hepatic CYP3A4 expression in 8HUM mice after dabrafenib (immunoblot). Format: in vivo, mouse. Conditions: dabrafenib 10 mg/kg PO. On the procedure:
Female 8HUM mice received either two daily oral doses of dabrafenib (n = 3; 15 weeks; 10 mg/kg) or vehicle (n = 3; 16 weeks; 0.5% hydroxypropylmethylcellulose, 0.2% Tween 80). On day 3 both groups were administered midazolam (3 mg/kg) by oral gavage. Whole blood collection and sample preparation were performed as described above, and analytical details are described in Supplemental Data. A third group of female 8HUM mice (n = 3; 17–22 weeks) received two daily doses of dabrafenib (10 mg/kg) by oral gavage and were culled for tissue collection on day 3 to allow determination of the effects of dabrafenib on P450 expression at the start of the pharmacokinetic (PK) study.
as §2
Fig. 8. Effect of dabrafenib on midazolam pharmacokinetics in 8HUM mice. Adult female 8HUM mice (n = 3) were treated with vehicle or dabrafenib (10 mg/kg) PO daily for 2 days, and on day 3 were administered midazolam (3 mg/kg) PO and PK profiling carried out as described in Materials and Methods. (A) Pharmacokinetic profiling for midazolam in 8HUM mice receiving either vehicle (open circles) or dabrafenib (closed triangles). Data shown are mean ± S.D. (B) Immunoblotting of liver microsomes from 8HUM mice, untreated or treated as above, against mouse and human P450 isozymes. Dab, Dabrafenib; MDZ, midazolam; Unt, untreated; Veh, vehicle. […]

Where [15] appears, read: Rifampicin 10 mg/kg i.p. daily for 3 days.
Where [16] appears, read: Rifampicin + ketoconazole 20 mg/kg PO 30 minutes before.
Where [17] appears, read: Vehicle (corn oil) pretreatment.

Entries after “also recorded” stand apart in the source; their conditions may differ. Like-named read-outs stand apart in the source and are kept apart here.

Sequence of CYP2C9 (P11712 whole entry): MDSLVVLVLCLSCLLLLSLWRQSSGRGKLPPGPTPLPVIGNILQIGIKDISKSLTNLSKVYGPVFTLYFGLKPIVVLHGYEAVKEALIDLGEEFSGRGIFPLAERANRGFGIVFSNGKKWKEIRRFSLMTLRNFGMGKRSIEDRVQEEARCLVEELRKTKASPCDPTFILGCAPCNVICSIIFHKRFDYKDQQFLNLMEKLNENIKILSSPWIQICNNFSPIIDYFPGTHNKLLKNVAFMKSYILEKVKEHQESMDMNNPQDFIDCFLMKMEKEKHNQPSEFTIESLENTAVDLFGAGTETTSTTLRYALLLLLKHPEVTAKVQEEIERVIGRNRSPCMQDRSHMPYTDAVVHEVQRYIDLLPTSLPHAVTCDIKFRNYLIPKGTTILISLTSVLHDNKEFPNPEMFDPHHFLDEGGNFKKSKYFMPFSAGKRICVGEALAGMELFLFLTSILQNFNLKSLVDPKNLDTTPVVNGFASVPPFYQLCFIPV

With `N=C(N)N1CCc2ccccc2C1` [Debrisoquine, debrisoquine], the “CYP2D6 fm (fraction metabolized)” value in [1] is 0.88. For the same molecule, in data set [2] (pH 7.4), the Km at 40 min turned out to be 25 ± 7 µM. In addition, the Vmax in data set [2] is recorded as 25 ± 2 pmol/min per milligram protein.

For the molecule `CC(=O)N1CCN(c2ccc(OCC3COC(Cn4ccnc4)(c4ccc(Cl)cc4Cl)O3)cc2)CC1` (centres unmarked) [Ketoconazole, ketoconazole], the “Tolbutamide (OH-Tolbutamide) activity, percent of activity measured in the absence of inhibitor” value in data set [3] (8HUM microsomes […]) is given as 92 ± 11%; in data set [3] (HLM […]) it was 154 ± 66%. The “Effect of prior ketoconazole on dabrafenib exposure (Cmax and AUC)” value in [4] (rifampicin-treated female 8HUM mice, ketoconazole 20 mg/kg PO 30 min before dabrafenib) is “approximately doubling both the Cmax and AUC”. Further, the “Increase of midazolam AUC” value in data set [5] is around 5 fold. For the same molecule, the “Caffeine (Paraxanthine) activity, percent of activity measured in the absence of inhibitor” value stood at 85 ± 34% in data set [6] (8HUM microsomes […]) and 135 ± 45% in data set [6] (HLM […]).

Take `CNCCCN1c2ccccc2CCc2ccccc21` [desipramine]: in [7], the CYP2D6 fm was 0.88.

As for `CC(C)(C)c1nc(-c2cccc(NS(=O)(=O)c3c(F)cccc3F)c2F)c(-c2ccnc(N)n2)s1` [dabrafenib], the Cmax in data set [4] (setting [15]) turned out to be 1740 ± 733 ng/mL; in data set [4] (setting [16]), 3650 ± 1220 ng/mL; in [4] (setting [17]), 3740 ± 613 ng/mL. Also, the half-life was 1.4 ± 0.3 h in data set [4] (setting [15]); 1.8 ± 0.1 h in data set [4] (setting [16]); 2.6 ± 0.4 h in data set [4] (setting [17]); 4.2 h in [10] (day 1); 2.1 h in data set [10] (day 18). For the same molecule, the figures for the AUC in [4] (setting [15]), in data set [4] (setting [16]) and in data set [4] (setting [17]) were 6150 ± 2930 ng·h/mL, 12900 ± 2710 ng·h/mL and 21900 ± 1690 ng·h/mL, respectively. The “Induction of murine Cyp2b10” value in [8] is listed as “induced weakly”. For the same molecule, the “Dextromethorphan O-demethylation” value in [9] (24 h after final dose) was determined as 726 ± 24; in [9] (48 h after final dose), 614 ± 28. In addition, the values for the AUC0-t in data set [10] (day 1) and in data set [10] (day 18) were 9359 ng·h/mL and 6545 ng·h/mL, respectively. The “Methoxyresorufin O-demethylation” value in data set [11] (24 h after final dose) is on record as 52 ± 4; in data set [11] (48 h after final dose) it was 36 ± 1. Also, the “Dibenzylfluorescein O-debenzylation” value in data set [12] (24 h after final dose) amounted to 440 ± 31; in [12] (48 h after final dose) it was 151 ± 5. The “Increase of 7-benylfluorescein O-debenzylation” value in data set [12] (24 hours after the second dabrafenib dose, vs vehicle) is reported as “approximately 5.5 fold”. Besides, in [12] (24 hours later (48 h after final dabrafenib dose), vs control), the “Elevation of 7-benylfluorescein O-debenzylation” value is given as “about twice control values”. The Cytochrome c reductase in [13] (24 h after final dose) is given as 301 ± 19; in data set [13] (48 h after final dose) it was 244 ± 19. The CYP3A4 induction result in data set [14] is “potent PXR activator and CYP3A4 inducer; also recorded: is a CYP3A4 inducer; also recorded: induction of CYP3A4”.
